Results reported in patent US6025365A, “Chelerythrine and radiation combined tumor therapy” (Arch Development Corp., priority 1997, dated 2000).

Columns and labels:
WEHI-231 cells = test: Ceramide production by DAG kinase assay; assay type: cell-based, murine; conditions: Mus musculus, WEHI231, 0.5 h; 10 μM chelerythrine, approximately 30 minutes; read-out: ceramide generation increase
Protocol: FIG. 7A. Inhibition of PKC causes an increase in ceramide production through the activation of a neutral sphingomyelinase and decreases in sphingomyelin levels. Ceramide production was quantitated using the DAG kinase assay for WEHI-231 JM cells and total lipid extraction was used to assay sphingomyelin mass. Following addition of 10 μM chelerythrine, cells were lysed at the appropriate time points as described herein. Each data point represents the average percentage change in ceramide or sphingomyelin generation from baseline derived from at least 8 independent studies for all time points with the exception of those marked with * (n=4). Standard deviations depicted by error bars.
FIG. 7B. […] Ceramide production and sphingomyelin mass was quantitated identical to that for chelerythrine. Cells were lysed 2 hours following the addition of 250 nM calphostin C. […]
Quantitation of ceramide by diacylglycerol kinase was similar to that described by Dressler and Kolesnick (1990). […] Data was calculated as pmoles of ceramide/10^6 cells by scintillation counting. […]
In order to test whether PKC inhibition alters ceramide production, the DAG kinase assay was used to quantify intracellular ceramide following chelerythrine and calphostin C treatment (Dressler and Kolesnick, 1990; Preiss et al., 1986). […]

neutral sphingomyelinase = test: Mixed micellar assay, neutral sphingomyelinase activity in treated WEHI-231 cells; assay type: cell-based, murine; conditions: chelerythrine, within 30 minutes; SD
Protocol: FIG. 7C. Graph of neutral and acidic sphingomyelinase activity normalized to percent of control. Cells (2×10^7) were treated with chelerythrine for 30 minutes prior to being assayed for neutral or acidic sphingomyelinase activity. Error bars represent +/- SEM from 4 individual studies with duplicate determinants.
The mixed micellar sphingomyelinase assay using ^[14] C labeled sphingomyelin was performed as described (Wiegmann et al., 1994) with minor modifications as described herein. Exponentially growing cells 2×10^7 were treated, collected, and lysed in 200 μl of neutral buffer (20 mM Hepes, pH 7.4; 10 mM MgCl2, 2 mM EDTA, 5 mM DTT, […], 10 mM b-glycerolphosphate, 750 μM ATP, 1 mM PMSF, Leupeptin, Pepstatin, 2% Triton X-100) or an acid buffer (pH=5.5, 2% Triton X-100, 1 mM PMSF, Leupeptin, Pepstatin). After incubation for 5 minutes at 4° C., cells were homogenized by sonication and cell debris were removed by low speed centrifugation (800×g). The protein concentration was measured using the BioRad protein assay system (BioRad). Protein (50 μg) was incubated for 2 hours at 37° C. in a buffer (1 ml final volume) containing 20 mM HEPES, 1 mM MgCl2, and 0.9 μl [N-methyl-^14 C sphingomyelin]. […] Radioactive phosphorylcholine was measured by scintillation counting. Data is expressed as a percent of control for both the acidic and neutral sphingomyelinases. […]

acidic sphingomyelinase = test: Mixed micellar assay, acidic sphingomyelinase activity in treated SQ-20B cells; assay type: cell-based, human; conditions: 5 μM chelerythrine 30 minutes then 10 Gy; within 5 minutes of IR
Protocol: FIG. 5A. […] The mixed micellar assay for sphingomyelinase activity was used to quantitate increased enzymatic activity.
The mixed micellar sphingomyelinase assay using ^[14] C labeled sphingomyelin was performed as described (Wiegmann et al., 1994) with minor modifications as described herein. Exponentially growing cells 2×10^7 were treated, collected, and lysed in 200 μl of neutral buffer (20 mM Hepes, pH 7.4; 10 mM MgCl2, 2 mM EDTA, 5 mM DTT, […], 10 mM b-glycerolphosphate, 750 μM ATP, 1 mM PMSF, Leupeptin, Pepstatin, 2% Triton X-100) or an acid buffer (pH=5.5, 2% Triton X-100, 1 mM PMSF, Leupeptin, Pepstatin). After incubation for 5 minutes at 4° C., cells were homogenized by sonication and cell debris were removed by low speed centrifugation (800×g). The protein concentration was measured using the BioRad protein assay system (BioRad). Protein (50 μg) was incubated for 2 hours at 37° C. in a buffer (1 ml final volume) containing 20 mM HEPES, 1 mM MgCl2, and 0.9 μl [N-methyl-^14 C sphingomyelin].

## COc1ccc2c(c[n+](C)c3c4cc5c(cc4ccc23)OCO5)c1OC [chelerythrine, 1,2-dimethoxy-12-methyl[1,3]benzodioxolo[5,6-c]phenanthridinium]
WEHI-231 cells
  activation at 10 µM: 100%
Neutral sphingomyelinase
  neutral sphingomyelinase activity: 235% (+/-38 SD)
Acidic sphingomyelinase
  acidic sphingomyelinase activity, x-rays and chelerythrine: about 170 % of control
